The numbers were not newly measured in patent US5010059A, “Pharmaceutical products and lactosyl compounds” (Solco Basel AG, priority 1987, dated 1991), which cites them from elsewhere.

The data set has as its system GalN/endotoxin hepatitis. The settings on record: *p ≤ 0.01, **p ≤ 0.001; indomethacin 9 mg/kg; diethylcarbamazine 78 mg/kg i.p. every 45 minutes between 0 and 6 hours; dexamethasone 200 μg/kg i.p.; cited from earlier work.

For the compound `COc1ccc2c(c1)c(CC(=O)O)c(C)n2C(=O)c1ccc(Cl)cc1` [Indomethacin], the SGOT is reported as 480 ± 475 and the SGPT was 730 ± 1,040.
